{
  "source": "patent US6375969B1",
  "about": "“Broadcast carriers for pesticides and their use” (priority 1996, dated 2002)",
  "assay": "Volatile materials test in ventilating oven",
  "assay_type": "physicochemical",
  "details": "after 2 hours at 141° F. (=60.5° C.) in a ventilating oven",
  "procedure": "The moisture content of raw material Celite 500 is 3.7 weight percent. So, the weight of raw material Celite 500 is close to the dry weight of Celite 500. According to the product specifications of Supragil MNS/90, Soprophor S/40-P, and Supragil WP, the moisture contents of these components are no higher than 2 weight percent. Also, samples of chlorpyrifos technical were tested for volatile materials in a ventilating oven. The weight loss after 2 hours at 141° F. (=60.5° C.) was only 0.6 weight percent. […] Therefore, the dry spreadable granular product as manufactured above contains approximately 2.0 weight percent chlorpyrifos.",
  "data": [
    {"smiles": "CCOP(=S)(OCC)Oc1nc(Cl)c(Cl)cc1Cl", "note": "[chlorpyrifos technical, Chlorpyrifos]", "values": [
      {"measurement": "weight loss (volatile materials)", "value": 0.6, "unit": "weight percent"}
    ]}
  ]
}
